≈ marks a conversion by molar mass, not a printed value.
Legend:
Experiment in all cases: MIC, broth microdilution (NCCLS)
[1] = tested on: S. pneumoniae Stpn_Erm 6849; format: cell-based, Streptococcus pneumoniae; conditions: Table 5, Strain ID H (Table 4): S. pneumoniae Stpn_Erm 6849; unit assumed
Method in brief: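 Lowest drug concentration giving no visible growth after 18-24 hours at 35° C. under 5-10% CO2 was taken as MIC. Twofold serial dilutions in CAMHB plus 2-5% lysed horse blood, final inoculum 3×10^5–7×10^5 CFU/ml, per NCCLS microdilution.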

E. coli Esco_25922 = format: cell-based; conditions: Table 5, Strain ID M (Table 4): E. coli Esco_25922; unit assumed
Experimental: Strains. The bacterial isolates listed in Table 4 were cultivated from −70° C. frozen stocks by two consecutive overnight passages (P1, P2) at 35° C. on 5% blood agar (Remel, Lenexa, Kans.). Chocolate agar (Remel) is used for Haemophilus influenzae. H. influenzae and Streptococcus pneumoniae are incubated in 5-10% CO2
Drug Stock Preparation. To determine the amount of solvent to be used to give the desired final concentration, the formula “weight obtained in mg/final concentration in mg/ml” will be used. It will give the amount of solvent in ml needed to be added to give the desired concentration. For example, if 2.5 mg/ml is the desired concentration and the weight of compound is 13.7 mg, then the amount of solvent to be added is […]. Methanol is used as the solvent to dissolve the test compounds. Further dilution of stock is done in sterile, deionized water. Drug stocks are kept frozen at −70° C., protected from light.
Susceptibility Testing. MICs are determined by the broth microdilution method in accordance with the NCCLS guidelines. In brief, organism suspensions are adjusted to a 0.5 McFarland standard to yield a final inoculum between 3×10^5 and 7×10^5 CFU/ml. Drug dilutions and inocula are made in sterile, cation adjusted Mueller-Hinton Broth (CAMHB) (Remel) for all but S. pneumoniae [CAMHB with 2-5% lysed horse blood (Remel)] and H. influenzae [Haemophilus Test Medium (Remel)]. An inoculum volume of 100 μl is added to wells containing 100 μl of broth with 2-fold serial dilutions of drug. All inoculated microdilution trays are incubated in ambient air at 35° C. for 18-24 hours, except for S. pneumoniae, and H. influenzae (both at 5-10% CO2).
Following appropriate incubation, the MIC is determined and the MIC is defined as the lowest concentration of the drug that prevented visible growth.

[2] = tested on: Streptococcus pyogenes Stpy_8668; format: cell-based; conditions: Table 5, Strain ID D (Table 4): S. pyogenes Stpy_8668
Method in brief: (§1)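 Broth microdilution per NCCLS in cation-adjusted Mueller-Hinton broth, with 2-5% lysed horse blood added for S. pneumoniae. Inoculum 3×10^5–7×10^5 CFU/ml, 2-fold drug dilutions, 18-24 h at 35° C; S. pneumoniae under 5-10% CO2, others ambient air. MIC = lowest concentration preventing visible growth.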

[3] = tested on: Streptococcus pneumoniae Stpn_49619; format: cell-based; conditions: Table 5, Strain ID E (Table 4): S. pneumoniae Stpn_49619
Method in brief: as §1

[4] = tested on: Streptococcus pneumoniae Stpn_280-962; format: cell-based; conditions: Table 5, Strain ID G (Table 4): S. pneumoniae Stpn_280-962 Pen S
Method in brief: as §1

[5] = tested on: Streptococcus pneumoniae Stpn_Erm S 4297; format: cell-based; conditions: Table 5, Strain ID I (Table 4): S. pneumoniae Stpn_Erm S 4297
Method in brief: as §1

[6] = tested on: Staphylococcus epidermidis Step_f50654; format: cell-based; conditions: Table 5, Strain ID B (Table 4): S. epidermidis Step_f50654 Pen S; in µg/mL (unit assumed)
Method in brief: as §1

[7] = tested on: Streptococcus pneumoniae Stpn_Mef S 3427; format: cell-based; conditions: Table 5, Strain ID K (Table 4): S. pneumoniae Stpn_Mef S 3427
Method in brief: as §1

[8] = tested on: Staphylococcus epidermidis Step_14990; format: cell-based; conditions: Table 5, Strain ID A (Table 4): S. epidermidis Step_14990; in µg/mL (unit assumed)
Method in brief: as §1

[9] = tested on: Enterococcus faecalis Enfa_29212; format: cell-based; conditions: Table 5, Strain ID C (Table 4): E. faecalis Enfa_29212
Method in brief: as §1

[10] = tested on: Haemophilus influenzae Hain_49247; format: cell-based; conditions: Table 5, Strain ID L (Table 4): H. influenzae Hain_49247; unit assumed
[11] = tested on: Streptococcus pneumoniae Stpn_Mef 5654; format: cell-based; conditions: Table 5, Strain ID J (Table 4): S. pneumoniae Stpn_Mef 5654; in µg/mL (unit assumed)
Method in brief: as §1

[12] = tested on: Streptococcus pneumoniae Stpn_297-749; format: cell-based; conditions: Table 5, Strain ID F (Table 4): S. pneumoniae Stpn_297-749 Pen R
Method in brief: as §1

Row | Structure (SMILES) | MIC [1] [µg/mL] | MIC (E. coli Esco_25922) [µg/mL] | MIC [2] | MIC [3] | MIC [4] | MIC [5] | MIC [6] | MIC [7] | MIC [8] | MIC [9] | MIC [10] [µg/mL] | MIC [11] | MIC [12] | MIC ([2]; unit assumed) [µg/mL] | MIC ([5]; unit assumed) [µg/mL] | MIC ([7]; in µg/mL (unit assumed)) | MIC ([9]; in µg/mL (unit assumed)) | MIC ([3]; unit assumed) [µg/mL] | MIC ([4]; unit assumed) [µg/mL] | MIC ([12]; unit assumed) [µg/mL]
1 | CC[C@H]1OC(=O)[C@H](C)C(=O)[C@H](C)[C@@H](OC2O[C@H](C)C[C@H](N(C)C)[C@H]2O)[C@@](C)(OC)C[C@@H](C)C(=O)[C@H](C)[C@@H]2[C@@H]1OC(=O)N2CCCCn1cnc(-c2ccccc2)c1 (stereo partly shown) [Compound 4710] | 0.2 (≈ 0.251 µM) | 50 (≈ 62.7 µM) | =0.5 | =0.5 | =0.5 | =0.05 | 0.2 | =0.5 | 0.1 | =0.05 | 3.13 (≈ 3.93 µM) | 0.2 | =0.5 | – | – | – | – | – | – | –
2 | CC[C@H]1OC(=O)[C@H](C)C(=O)[C@H](C)[C@@H](OC2O[C@H](C)C[C@H](N(C)C)[C@H]2O)[C@@](C)(OC)C[C@@H](C)C(=O)[C@H](C)[C@@H]2[C@@H]1OC(=O)N2CCCn1cnc(-c2ccccc2)c1 (stereo partly shown) [Compound 4714] | > 50 | > 50 | – | =0.5 | =0.5 | – | 6.25 | – | 6.25 | – | > 50 | 0.4 | =0.5 | 0.1 (≈ 0.128 µM) | 6.25 (≈ 7.98 µM) | 0.1 | 0.4 | – | – | –
3 | CC[C@H]1OC(=O)[C@H](C)C(=O)[C@H](C)[C@@H](OC2O[C@H](C)C[C@H](N(C)C)[C@H]2O)[C@@](C)(OC)C[C@@H](C)C(=O)[C@H](C)[C@H]2N(CCCCn3cnc(-c4ccccc4)c3)C(=O)O[C@]12CC (stereo partly shown) [Compound 7281] | 0.2 (≈ 0.242 µM) | 25 (≈ 30.3 µM) | =0.05 | =0.05 | =0.05 | =0.05 | 0.1 | =0.05 | 0.2 | – | 3.13 (≈ 3.79 µM) | 0.4 | =0.05 | – | – | – | 0.1 | – | – | –
4 | CC[C@H]1OC(=O)[C@H](C)C(=O)[C@H](C)[C@@H](OC2O[C@H](C)C[C@H](N(C)C)[C@H]2O)[C@@](C)(OC)C[C@@H](C)C(=O)[C@H](C)[C@H]2N(CCCCn3cnc(-c4cccnc4)c3)C(=O)O[C@]12CC (stereo partly shown) [Compound 7280] | 0.4 (≈ 0.484 µM) | 25 (≈ 30.3 µM) | =0.05 | =0.05 | =0.05 | =0.05 | 0.2 | – | 0.2 | – | 6.25 (≈ 7.57 µM) | 0.4 | =0.05 | – | – | 0.1 | 0.1 | – | – | –
5 | CC[C@H]1OC(=O)[C@H](C)C(=O)[C@H](C)[C@@H](OC2O[C@H](C)C[C@H](N(C)C)[C@H]2O)[C@@](C)(OC)C[C@@H](C)C(=O)[C@H](C)[C@@H]2[C@@H]1OC(=O)N2CCCCn1cnc(-c2ccccc2)c1 (stereo partly shown) [Compound 6221] | 0.1 (≈ 0.125 µM) | 25 (≈ 31.4 µM) | =0.05 | =0.05 | =0.05 | =0.05 | 0.1 | =0.05 | 0.1 | =0.05 | 3.13 (≈ 3.93 µM) | 0.4 | =0.05 | – | – | – | – | – | – | –
6 | CC[C@H]1OC(=O)[C@H](C)C(=O)[C@H](C)[C@@H](OC2O[C@H](C)C[C@H](N(C)C)[C@H]2O)[C@@](C)(OC)C[C@@H](C)C(=O)[C@H](C)[C@@H]2[C@@H]1OC(=O)N2CCCn1cnc2cccnc21 (stereo partly shown) [Compound 4716] | > 50 | > 50 | – | =0.5 | =0.5 | – | 12.5 | – | 6.25 | – | 25 (≈ 33 µM) | 0.78 | =0.5 | 0.1 (≈ 0.132 µM) | 25 (≈ 33 µM) | 0.4 | 0.78 | – | – | –
7 | CC[C@H]1OC(=O)[C@H](C)C(=O)[C@H](C)[C@@H](OC2O[C@H](C)C[C@H](N(C)C)[C@H]2O)[C@@](C)(OC)C[C@@H](C)C(=O)[C@H](C)[C@@H]2[C@@H]1OC(=O)N2CCCCc1ccc2ccccc2n1 (stereo partly shown) [Compound 5960] | 25 (≈ 32 µM) | 25 (≈ 32 µM) | =0.05 | =0.05 | =0.05 | – | 0.2 | =0.05 | 0.2 | =0.05 | 3.13 (≈ 4 µM) | 0.2 | =0.05 | – | 0.1 (≈ 0.128 µM) | – | – | – | – | –
8 | CC[C@H]1OC(=O)[C@H](C)C(=O)[C@H](C)[C@@H](OC2O[C@H](C)C[C@H](N(C)C)[C@H]2O)[C@@](C)(OC)C[C@@H](C)C(=O)[C@H](C)[C@H]2NC(=O)O[C@@H]21 (stereo partly shown) [Compound 4266] | > 50 | > 50 | – | – | =0.05 | – | 3.13 | – | 3.13 | – | 25 (≈ 41.8 µM) | 0.2 | =0.05 | 0.1 (≈ 0.167 µM) | > 50 | 0.1 | 1.56 | 0.2 (≈ 0.334 µM) | – | –
9 | CC[C@H]1OC(=O)[C@H](C)C(=O)[C@H](C)[C@@H](OC2O[C@H](C)C[C@H](N(C)C)[C@H]2O)[C@@](C)(OC)C[C@@H](C)C2=N[C@@H](C)CN3C(=O)O[C@H]1[C@H]3[C@H]2C (stereo partly shown) [Compound 6223] | > 50 | 50 (≈ 78.4 µM) | – | – | – | – | 3.13 | – | 1.56 | – | > 50 | 0.78 | – | 0.2 (≈ 0.314 µM) | > 50 | 0.4 | 0.78 | 0.2 (≈ 0.314 µM) | 0.2 (≈ 0.314 µM) | 0.2 (≈ 0.314 µM)
10 | CC[C@H]1OC(=O)[C@H](C)C(=O)[C@H](C)[C@@H](OC2O[C@H](C)C[C@H](N(C)C)[C@H]2O)[C@@](C)(OC)C[C@@H](C)C(=O)[C@H](C)[C@@H]2[C@@H]1OC(=O)N2CCCCn1cnc2ncccc21 (stereo partly shown) [Compound 4713] | 0.78 (≈ 1.01 µM) | 50 (≈ 64.8 µM) | =0.5 | =0.5 | =0.5 | – | 0.4 | – | 0.4 | – | 3.13 (≈ 4.05 µM) | 3.13 | =0.5 | – | 0.1 (≈ 0.13 µM) | 0.4 | 0.1 | – | – | –
